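Exposure lasted 48 hours, with cells grown in 96-well plates and compounds tested at five concentrations. The concentration for 50% growth inhibition is given as GI50.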 Active and inactive are the calls of the source. Rule as the data show it: active = GI50 up to about 1.1 µM and inactive = higher.
What was measured:
Assay in all cases: DTP human tumour cell line panel, 48 h
[1] = tested on: ACHN
[2] = tested on: EKVX
[3] = tested on: HOP-62
[4] = tested on: IGROV-1
[5] = tested on: K562
[6] = tested on: KM12
[7] = tested on: M14
[8] = tested on: MOLT-4
[9] = tested on: OVCAR-3
[10] = tested on: OVCAR-4
[11] = tested on: OVCAR-8
[12] = tested on: PC-3
[13] = tested on: SF-295
[14] = tested on: SF-539
[15] = tested on: SK-MEL-28
[16] = tested on: SK-MEL-5
[17] = tested on: SK-OV-3
[18] = tested on: SNB-19
[19] = tested on: SR
[20] = tested on: UACC-62

SMILES | GI50 [1] | GI50 [2] | GI50 [3] | GI50 [4] | GI50 [5] | GI50 [6] | GI50 [7] | GI50 [8] | GI50 [9] | GI50 [10] | GI50 [11] | GI50 [12] | GI50 [13] | GI50 [14] | GI50 [15] | GI50 [16] | GI50 [17] | GI50 [18] | GI50 [19] | GI50 [20]
Brc1ccc2[nH]cc(-c3nc(-c4c[nH]c5ccccc45)cs3)c2c1 | 2.43 µM (inactive) | 2.46 µM (inactive) | 4.58 µM (inactive) | 1.58 µM (inactive) | 2.95 µM (inactive) | 2.09 µM (inactive) | 1.74 µM (inactive) | 2.11 µM (inactive) | 3.42 µM (inactive) | 6.03 µM (inactive) | 4.27 µM (inactive) | 3.11 µM (inactive) | 2.84 µM (inactive) | 2.9 µM (inactive) | 5.81 µM (inactive) | 1.6 µM (inactive) | 8.13 µM (inactive) | 3.51 µM (inactive) | 3.44 µM (inactive) | 2.37 µM (inactive)
C=C1C(=O)O[C@H]2[C@H](OC(C)=O)[C@@H](C)CCC/C(C)=C/CC[C@@]3(C)O[C@@H]3C[C@@H]12 | 1.72 µM (inactive) | 3.42 µM (inactive) | 15.6 µM (inactive) | 2.77 µM (inactive) | 3.03 µM (inactive) | 6.44 µM (inactive) | 4.23 µM (inactive) | 2.6 µM (inactive) | 4.97 µM (inactive) | 3.55 µM (inactive) | 0.885 µM (active) | 5.25 µM (inactive) | 13.2 µM (inactive) | 1.95 µM (inactive) | 4.72 µM (inactive) | 4.19 µM (inactive) | 15.6 µM (inactive) | 13.6 µM (inactive) | 1.86 µM (inactive) | 4.11 µM (inactive)
Cc1nc2ccccc2c(=O)n1NC(=O)c1ccc([N+](=O)[O-])cc1 | > 100 µM (inactive) | > 100 µM (inactive) | > 100 µM (inactive) | > 100 µM (inactive) | > 100 µM (inactive) | > 100 µM (inactive) | > 100 µM (inactive) | > 100 µM (inactive) | > 100 µM (inactive) | > 100 µM (inactive) | > 100 µM (inactive) | > 100 µM (inactive) | > 100 µM (inactive) | > 100 µM (inactive) | > 100 µM (inactive) | > 100 µM (inactive) | > 100 µM (inactive) | > 100 µM (inactive) | > 100 µM (inactive) | > 100 µM (inactive)
COc1cc(C2C3=C(COC3=O)Oc3cc4c(cc32)OCO4)ccc1OC(C)=O (stereo not given) | 0.55 µM (active) | 1.21 µM (inactive) | 1.73 µM (inactive) | 0.238 µM (active) | 0.13 µM (active) | 0.255 µM (active) | 0.498 µM (active) | 0.536 µM (active) | 0.244 µM (active) | 1.41 µM (inactive) | 0.752 µM (active) | 0.186 µM (active) | 0.127 µM (active) | 0.25 µM (active) | 10.8 µM (inactive) | 0.106 µM (active) | 0.334 µM (active) | 0.35 µM (active) | 0.179 µM (active) | 0.54 µM (active)
[N-]=[N+]=Nc1ccccc1C(=O)N1C(=O)c2ccccc2C(=O)N(C(=O)c2ccccc2N=[N+]=[N-])c2ccccc21 | 45.1 µM (inactive) | > 100 µM (inactive) | 21.6 µM (inactive) | 46.9 µM (inactive) | 30.3 µM (inactive) | 57.8 µM (inactive) | > 100 µM (inactive) | 13.9 µM (inactive) | 37.7 µM (inactive) | > 100 µM (inactive) | 97.3 µM (inactive) | 21.4 µM (inactive) | 41.9 µM (inactive) | 43.7 µM (inactive) | > 100 µM (inactive) | 47.2 µM (inactive) | 31.2 µM (inactive) | 60.4 µM (inactive) | 38.8 µM (inactive) | 34.4 µM (inactive)
C=C(Cl)[C@](Cl)(CBr)CC[C@@H](Br)C(C)(C)Cl [HALOMON] | 1.01 µM (active) | 3.64 µM (inactive) | 0.23 µM (active) | 6.67 µM (inactive) | 0.916 µM (active) | 0.927 µM (active) | 15.7 µM (inactive) | 12.8 µM (inactive) | 0.791 µM (active) | 1.46 µM (inactive) | 1.27 µM (inactive) | 0.319 µM (active) | 1.02 µM (active) | 0.562 µM (active) | 1.73 µM (inactive) | 12.3 µM (inactive) | 9.57 µM (inactive) | 1.46 µM (inactive) | 7.21 µM (inactive) | 3.19 µM (inactive)
ClCCN1CCO/C1=N/c1ccc2c(c1)CCCC2 | 7.05 µM (inactive) | 14 µM (inactive) | 4.67 µM (inactive) | 7.48 µM (inactive) | 6.7 µM (inactive) | 17.9 µM (inactive) | 13.3 µM (inactive) | 12.2 µM (inactive) | 13 µM (inactive) | 6.1 µM (inactive) | 5.13 µM (inactive) | 4.44 µM (inactive) | 12.1 µM (inactive) | 4.81 µM (inactive) | 14.1 µM (inactive) | 1.96 µM (inactive) | 20.7 µM (inactive) | 5.53 µM (inactive) | 19.6 µM (inactive) | 11.3 µM (inactive)
COc1cc(C(=O)Oc2c(C#N)sc3c2c(=O)n(-c2ccccc2)c(=S)n3-c2ccccc2)cc(OC)c1OC | 8.87 µM (inactive) | 19.3 µM (inactive) | 19.5 µM (inactive) | 19.1 µM (inactive) | 23.5 µM (inactive) | 18.9 µM (inactive) | 12.8 µM (inactive) | 16.6 µM (inactive) | 22.7 µM (inactive) | 26.4 µM (inactive) | 10.9 µM (inactive) | 17.1 µM (inactive) | 4.14 µM (inactive) | 4.71 µM (inactive) | 14.2 µM (inactive) | 17.3 µM (inactive) | 22 µM (inactive) | 11.6 µM (inactive) | > 100 µM (inactive) | 24.1 µM (inactive)
NC(=O)C(=O)C(c1ccccc1)S(=O)(=O)Cc1ccccc1 (stereo not given) | > 100 µM (inactive) | > 100 µM (inactive) | > 100 µM (inactive) | > 100 µM (inactive) | > 100 µM (inactive) | > 100 µM (inactive) | > 100 µM (inactive) | 16.5 µM (inactive) | > 100 µM (inactive) | > 100 µM (inactive) | > 100 µM (inactive) | > 100 µM (inactive) | > 100 µM (inactive) | > 100 µM (inactive) | > 100 µM (inactive) | > 100 µM (inactive) | > 100 µM (inactive) | > 100 µM (inactive) | > 100 µM (inactive) | > 100 µM (inactive)
C[n+]1c2ccccc2c(C(=O)Nc2ccc(S(=O)(=O)Nc3ccnn3-c3ccccc3)cc2)c2ccccc21 | > 100 µM (inactive) | > 100 µM (inactive) | > 100 µM (inactive) | > 100 µM (inactive) | > 100 µM (inactive) | > 100 µM (inactive) | > 100 µM (inactive) | > 100 µM (inactive) | > 100 µM (inactive) | > 100 µM (inactive) | > 100 µM (inactive) | > 100 µM (inactive) | > 100 µM (inactive) | > 100 µM (inactive) | > 100 µM (inactive) | 69.2 µM (inactive) | > 100 µM (inactive) | > 100 µM (inactive) | > 100 µM (inactive) | > 100 µM (inactive)

Source: ChEMBL document CHEMBL1201862, “PubChem BioAssay data set” (2004)
